The source of these data is PMC6268071, “α-Glucosidase Inhibitory Constituents from Acanthopanax senticosus Harm Leaves” (Molecules, 2012).

In this experiment the target is α-Glucosidase (EC.3.2.1.20) from Saccharomyces sp. Put plainly: α-Glucosidase inhibition assay. The experiment is classed as biochemical. On the procedure: Open column chromatography was carried out using silica gel (200–300 mesh, Qingdao Marine Chemical Co., Qingdao, China) or octadecyl silica gel (ODS, 25–40 μm, Fuji, Tokyo, Japan) as stationary phases. TLC employed precoated silica gel plates (5–7 μm, Qingdao Marine Chemical Co., Qingdao, China). Preparative HPLC was carried out on a Waters 600 instument equipped with a Waters RID-2414 detector. A Waters Sunfire prep C18 OBD (19 × 250 mm i.d.; Milford, PA, USA) column was used for preparative purposes. The IR spectra were recorded as KBr pellets on a Jasco 302-A spectrometer. Optical rotation was recorded on a Jasco P-2000 polarimeter. HRESIMS were measured on a FTMS-7 instrument (Bruker Daltonics, Karlsruhe, Germany). Melting points were determined on a Gallenkemp apparatus and are uncorrected. The ^1H-, ^13C- and 2D (^1H-^1H COSY, HSQC, HMBC, NOESY) NMR spectra were recorded on a Bruker AMX-400 spectrometer using standard pulse sequences. Chemical shifts are reported in ppm (δ), and scalar coupling are reported in Hz. GC analyses were carried out using a Fuli 9790 instrument, DM-5 column (0.25 μm, 30 m × 0.25 mm, Dikma, Beijing, China). α-Glucosidase (EC.3.2.1.20) from Saccharomyces sp. was purchased from Wako Pure Chemical Indutries Ltd. (Wako 076-02841; Osaka, Japan).
The α-glucosidase (EC.3.2.1.20) enzyme inhibition assay has been performed according to the literature. α-Glucosidase (25 μL, 0.2 U/mL), various concentrations of samples (25 μL), and 67 mM phosphate buffer (pH 6.8, 175 μL) were mixed at room temperature for 10 min. Reactions were initiated by the addition of 23.2 mM p-nitrophenyl-α-D-glucopyranoside (25 μL). The reaction mixtures were incubated at 37 °C for 15 min in a final volume of 250 μL, and then 1 M Na2CO3 (50 μL) was added to the incubation solution to stop the reaction. The activities of glucosidase were detected in a 96-well plate, and the absorbance was read at 405 nm by a microplate spectrophotometer (Spectra Max, Molecular Devices, Sunnyvale, CA, USA). The negative control was prepared by adding phosphate buffer instead of the sample in the same way as the test. […] The blank was prepared by adding phosphate buffer instead of α-glucosidase using the same method. The inhibition rates (%) were calculated from the formula: […]

[1] abbreviates: in vitro α-glucosidase inhibitory assay, substrate p-nitrophenyl-α-D-glucopyranoside, pH 6.8, 37 °C, value ± SEM, read-out: IC50 (μM ± SEM).
[2] abbreviates: read-out: α-glucosidase inhibitory activity IC50.

Molecules are shown by their SMILES. Where two headings read alike, the source gives them in different places.

On to `COC(=O)[C@H]1O[C@@H](O[C@H]2CC[C@@]3(C)C(CC[C@]4(C)C3CC=C3C5CC(C)(C)CC[C@]5(C(=O)O)CC[C@]34C)C2(C)C)[C@H](O[C@@H]2O[C@@H](C)[C@H](O)[C@@H](O)[C@H]2O)[C@@H](O)[C@@H]1O` (stereo partly drawn) [Compound 1, 3-O-[(α-L-rhamnopyranosyl)(1→2)]-[β-D-glucuronopyranosyl-6-O-methyl ester]-olean-12-ene-28-olic acid], for which the IC50 is 908 ± 67.3 µM under setting [1] and 186 µM under setting [2].
In the case of `COC(=O)[C@H]1O[C@@H](O[C@H]2CC[C@@]3(C)C(CC[C@]4(C)C3CC=C3C5CC(C)(C)CC[C@]5(C(=O)O)CC[C@]34C)C2(C)C)[C@H](O)[C@@H](O)[C@@H]1O` (stereo partly drawn) [Compound 2, 3-O-(β-D-glucuronopyranosyl-6-O-methyl ester)-olean-12-ene-28-olic acid], the IC50 under setting [1] is more than 1000 µM.
On the same count and under the same terms, the value for `C=C(C)[C@@H]1CC[C@]2(C(=O)O[C@@H]3O[C@H](CO[C@@H]4O[C@H](CO)[C@@H](O[C@@H]5O[C@@H](C)[C@H](O)[C@@H](O)[C@H]5O)[C@H](O)[C@H]4O)[C@@H](O)[C@H](O)[C@H]3O)CC[C@]3(C)[C@H](C[C@H]4OC(=O)C[C@@H](O)[C@]5(C)[C@@H]4[C@@]3(C)CC[C@H]5C(=C)C)[C@@H]12` [Compound 3, chiisanoside] was more than 1000 µM.
For `C=C(C)[C@@H]1C[C@H](O)[C@]2(C(=O)O[C@@H]3O[C@H](CO[C@@H]4O[C@H](CO)[C@@H](O[C@@H]5O[C@@H](C)[C@H](O)[C@@H](O)[C@H]5O)[C@H](O)[C@H]4O)[C@@H](O)[C@H](O)[C@H]3O)CC[C@]3(C)[C@H](C[C@H]4OC(=O)C[C@@H](O)[C@]5(C)[C@@H]4[C@@]3(C)CC[C@H]5C(=C)C)[C@@H]12` [Compound 4, 22α-hydroxychiisanoside], the IC50 stood at 820 ± 91.6 µM under setting [1] and 908 µM under setting [2].
With `COC(=O)CC1C(=O)Nc2ccc(OC)cc21` (stereo not drawn) [Compound 5, 5-methoxy-2-oxoindolin-3-acetic acid methyl ester], the IC50 under setting [1] was more than 1000 µM.
Take `Oc1ccc([C@H]2Oc3cc(O)cc(O)c3C[C@@H]2O)cc1` [Compound 6, (+)-afzelechin]: the IC50 reads like this: under setting [1], 186 ± 12 µM; under setting [2], 820 µM. Moreover, under “qualitative statement”, the “α-glucosidase inhibition activity (in words)” value is “significant α-glucosidase inhibition activity”.
In the case of `OCc1ccc(-c2nccc3c2[nH]c2ccccc23)o1` [Compound 7, perlolyrine], under setting [1], the IC50 was more than 1000 µM.
In the case of `O=C(O)c1cc2c([nH]c3ccccc32)c(-c2ccc(CO)o2)n1` [Compound 8, 3-carboxylperlolyrine], the IC50 under setting [1] was more than 1000 µM.

One may read the IC50 as the concentration needed to halve the response being measured.
